Where a SMILES comes first, the peptide text is derived from it. The star is where a group is joined. Cbz = O=C(OCc1ccccc1)*; CH2F = FC*
Assays:
human fetal neurons = assay: Trypan blue uptake neurotoxicity assay in GrB-treated neuronal cultures; assay type: cell-based
Experimental: (§1) FIG. 8A-8B Protection against Granzyme B neurotoxicity by Kv1.3 inhibitors. Human fetal neuronal cultures were treated with GB (4 nM) in the presence or absence of various K channel blockers. (FIG. 8A) Cell viability was determined by staining with CYTOQUANT™ blue and the staining was quantitated by a plate reader. […] (FIG. 8B) Cell viability was determined by staining with trypan blue and the % of cells staining were counted which represent dead cells. A minimum of 500 cells was counted in each well and each treatment was done in triplicate.
Human fetal neurons were cultured as previously described (35). Briefly, human fetal brain specimens of 12-17 weeks gestation were obtained in accordance with NIH guidelines. The tissues were then triturated after removing the meninges. Cells were then cultured in T75 flasks in opti-MEM with 5% FBS, 0.5% N2 supplement and 1% antibiotics. Neurons were collected by carefully shaking the flask at least 1 month later. Cells were then seeded at 1×10^5/ml in 96 well plates for 1 week before treatment. These cultures contain 70-80% neurons, <5% microglia and the remaining cells are astrocytes as determined by immunostaining for microtubule associated antigen (MAP-2), CD68 and glial fibrillary acidic protein (GFAP) respectively.
For trypan blue uptake, neuronal cells were seeded at 1×10^5/ml and incubated for 1 week in 96-well plates before treatment. […] The cells were then stained with trypan blue for 5 min, washed with phosphate buffered saline, pH7.4 (PBS) and fixed with 4% paraformaldehyde. Trypan blue positive and negative cells were counted in three pre-determined fields. Approximately 200 cells were counted in each well. Each experiment was done in triplicate wells and mean and SEM were calculated from at least three independent experiments.

[1] = tested on: Human fetal neuronal cultures; assay: CYTOQUANT blue cell viability, GB-treated neuronal cultures with K channel blockers; assay type: cell-based; details: GB 4 nM; CYTOQUANT blue staining, plate reader
Experimental: as §1

Kv1.3 [2] = assay: Kv1.3 immunostaining in GrB-treated NPC; assay type: cell-based; details: GrB 4 nM, 24 hours
Experimental: FIG. 9A-9H. […] NPC cultures on cover slips were treated with GrB (4 nM; FIGS. 9B, 9D, 9F, and 9H) for 24 hours or controls without GrB (FIGS. 9A, 9C, 9E, and 9G). The cells were then fixed in 4% paraformaldehyde and immunostained with mAb against nestin (FIGS. 9A-9B) and polyclonal Ab against Kv1.3, followed by fluorescence-conjugated secondary Abs (FIGS. 9C-9D). Nuclei were stained with Hoechst 33342 (Calbiochem, 10 μM; FIGS. 9E-9F). The cells were imaged by confocal microscopy. As shown, more than 98% of the cells were positive for nestin and also moderately stained for Kv1.3 in the control cultures.

[3] = tested on: Human fetal neuron cultures; assay: GrB neurotoxicity by caspase-3 activation and nuclear fragmentation; assay type: cell-based; details: recombinant GrB 0.5 to 4 nM
Experimental: Human fetal neuron cultures on cover slips were treated with GrB (1 nM) for 24 h. Caspase-3 and βIII tubulin expression in neurons was determined by immunocytochemistry. Briefly, cells were fixed with 4% paraformaldehyde for 5 min, and then blocked with 3% FBS in PBS for 20 min. Polyclonal caspase-3 antiserum (1:500) and monoclonal anti-BIII tubulin (1 μg/ml; Promega, Madison. WI) antibody were then applied and cover slips incubated overnight at 4° C. After washing with PBS, the cover slips were incubated with secondary antibodies (1:200 Donkey anti-rabbit IgG Alexa Fluor 594 and anti-mouse IgG Alexa Fluor 488, Molecular Probes, Eugene, Oreg.) for 2 h. Hochest 33258 (10 μM) was added at the last half an hour to stain the nucleus. The cells were imaged by confocal microscopy.
(§2) Recombinant GrB induces toxicity in neurons but not in astroglia. […] We next determined the effect of perform on GrB induced neurotoxicity. We used threshold toxic concentrations of perform (50 ng/ml) for these experiments. […] We next determined if the GrB mediated toxicity could also occur in astrocytes. Human astrocyte cultures were similarly treated with recombinant GrB (dose-1-4 nM) and monitored for neurotoxicity.

[4] = tested on: Human fetal neuronal cultures; assay: Cyclic AMP assay in neuronal cultures; assay type: cell-based; details: GrB 1 nM, 0-30 min
Experimental: Human fetal neuronal cultures were seeded at 5×10^5/ml in 12 well plates for 1 week before treatment. Cultures were then treated with GrB (1 nM) in Locke's buffer for 0-30 min. After removing the media the cells were treated with 100 μl of 0.1 M HCl for 10 min to achieve cell lysis. The lysate was centrifuged at 600 g for 10 min and the supernatant was used directly for the cyclic AMP assay. Cyclic AMP competitive ELISA kit (ENDOGEN, Rockford, Ill.) was used according to manufacturer's directions.

Kv1.3 [5] = assay: Kv1.3 immunostaining in GB-treated neurons; assay type: cell-based, human; details: GB 4 nM, 16 hours
Experimental: FIG. 7A-7H. Expression of Kv1.3 on neurons and toxicity by Granzyme B. Human fetal neuronal cultures were treated with GB (4 nM; FIGS. 7E-7H) or control with no GB (FIGS. 7A-7D) and immunostained with antisera to beta-tubulin (red; FIGS. 7A and 7E) Kv1.3 (green; FIGS. 7C and 7G) and Hoechst (blue; FIGS. 7B and 7F), 16 hours following treatment. […] FIGS. 7D and 7H show merged images with immunostaining with both antisera and Hoechst.
Expression of voltage gated channel, Kv1.3, in neurons. We discovered that that similar to T cells small basal levels of Kv1.3 channel were expressed on neurons. […] Similar increases in Kv1.3 immunostaining in neurons were also noted upon treatment with supernatants from activated T cells (FIG. 7A-7H).

[6] = tested on: Neuronal precursor cells (NPC); assay: Caspase-3 activation in GrB-treated NPC cultures (Western-blot); assay type: cell-based; details: for effect on GB-induced caspase-3 activation: GrB 4 nM 24 hours, pretreatment PTX 100 ng/ml, ROCK-I 10 nM or MgTX 10 nM
Human astrocyte cultures = assay type: cell-based; details: recombinant GrB 1-4 nM
Experimental: Enriched human fetal astroglia were cultured as previously described. Briefly, human fetal brain specimens of 12-17 weeks gestation were triturated after removal of the meninges. Cells were then cultured in T75 flasks in DMEM with 10% FBS and 1% antibiotics for at least 1 month. After shaking at 180 rpm for 1 h, cells were separated with trypsin/EDTA. Cells were then seeded at 1×10^5/ml in 96 well plates for 1 week before treatment. >95% of these cells were immunostained for GFAP.
as §2

Primary neurons = assay: Calcium imaging (Fura-2/AM) of cytosolic calcium in neurons; assay type: cell-based
Experimental: FIG. 4-4B. disrupts calcium homeostasis in neurons. Primary neurons were exposed to GrB for 30 min before imaging of intracellular calcium using Fura-2AM. (FIG. 4A). Resting levels of cytosolic calcium were increased by treatment with 1.0-100 nM GrB. (FIG. 4B). SDF-1α (10 μM) evoked increases of cytosolic calcium were increased by pre-treatment of neurons with 10 nM GrB. * P<0.001.
Cytosolic calcium ([Ca^2+]c) was determined using the ratiometric calcium probe Fura-2/AM using methods similar to those previously described (36). Cells were incubated in 2 μM Fura-2/AM for 20 min at 37° C. in media and washed with Locke's Buffer (154 mM NaCl, 3.6 mM NaHCO3, 5.6 mM KCl, 1 mM MgCl2, 5 mM HEPES, 2.3 mM CaCl2, 10 mM glucose; pH 7.4) to remove extracellular Fura-2/AM. Fura-2 loaded cells were placed into a open bath chamber and maintained at 37° C. (Series 20 open perfusion chamber and TC-344B temperature controller; Warner Instruments. Hamden, Conn.). Buffer flowed over the cells at the rate of ˜2 ml/min using a VC-6 perfusion control system with a multi-input manifold that minimized dead space, allowing for a rapid change between buffer and buffer containing drug. Cells were alternatively excited at 340 and 380 nm by a monochrometer and emission was recorded at 510 with software from Intracellular Imaging (Intracellular Imaging Inc., Cincinnati, Ohio.) […] ratios were converted to nM [Ca^2+]c using curve fitting software and calcium reference standards (Molecular Probes).

[7] = target: Kv1.3 channel (voltage-gated potassium channel) on human fetal neurons / neuronal precursor cells (human); assay: cell-based or functional assay
[8] = tested on: Neuronal precursor cells (NPC); assay: Neuronal differentiation of NPC (βIII-tubulin / GFAP immunostaining); assay type: cell-based; details: MgTX 10 nM for 7 days in differentiating media
Experimental: FIG. 11. Kv1.3 specific blocker enhanced neuronal differentiation in NPC. NPC cultures were treated with (FIGS. 11D-11F) or without (FIGS. 11A-11C) Kv1.3 specific blocker MgTX (10 nM) for 7 days in differentiating media. The cells were then fixed in 4% paraformaldehyde and immunostained with mAb against neuron specific βIII-tubulin (FIGS. 11A, 11D) and polyclonal Ab against astrocyte specific GFAP (FIGS. 11B, 11E), followed by fluorescence-conjugated second Abs. The cells were observed and images were taken under confocal microscopy. […] FIGS. 11C and 11F show the merged images.

[9] = agent 10 μM added 1 h prior to GrB, trypan blue uptake 48 h later

Molecule: CCC(C)(C)C(=O)C(=O)N1CCC[C@H]1C(=O)OCCCc1cccnc1 [GPI-1046, 3-(3-pyridyl)-1-propyl (2S)-1-(3,3-dimethyl-1,2-dioxopentyl)-2-pyrrollidinecarboxylate]
- blocking of GrB-induced neurotoxicity (human fetal neurons; [9]): blocked GrB neurotoxicity

Molecule: MnTMPyP
- blocking of GrB-induced neurotoxicity (human fetal neurons; [9]): significantly blocked the neurotoxicity

Molecule: COC(=O)C[C@H](NC(=O)[C@H](C)NC(=O)[C@@H](NC(=O)OCc1ccccc1)C(C)C)C(=O)CF [Z-VAD-fmk] (Cbz-Val-Ala-Asp(OMe)-CH2F)
- blocking of GrB-induced neurotoxicity (human fetal neurons; [9]): significantly (P<0.05) blocked

Molecule: rTrtyustoxin: non-specific voltage gated K channel blocker (VFINAKCRGSPECLPKCKEAIGKAAGKCMNGKCKCYP)
- protection against GB neurotoxicity (cell viability, optical density) [1]: protective

Molecule: dendrotoxin
- protection against GB neurotoxicity (cell viability, optical density) [1]: failed to protect against GB neurotoxicity

Molecule: O=C[C@@H](O)[C@@H](O)[C@H](O)[C@H](O)COP(=O)(O)O [Mannose-6-phosphate, D-mannose 6-phosphate]
- inhibition of GrB-induced neurotoxicity (human fetal neurons; pretreated with 10 mM mannose-6-phosphate, then GrB 1 nM, trypan blue uptake, 48 h): unable to inhibit GrB-induced neurotoxicity

Molecule: GrB: 32-kDa serine protease of lymphocyte granules; recombinant GrB used
- Kv1.3 expression in NPC (Kv1.3 [2]): significant increase in Kv1.3 expression
- minimum concentration needed to cause significant neurotoxicity [3]: 1 nM
- cAMP levels [4]: significant decreases at 5 min
- Kv1.3 channel expression in neurons (Kv1.3 [5]): increased expression of Kv1.3 channel in a subpopulation of cells
- caspase-3 activation in NPC ([6]; GrB 4 nM, 24 hours): induced caspase-3 activation
- cell death in astrocyte cultures (Human astrocyte cultures): No evidence of cell death
- SDF-1α-evoked ER calcium release, peak increase (Primary neurons; cultures pre-treated with GrB (10 nM), SDF-1α): 1000 nM
- resting [Ca2+]c (Primary neurons; higher dose of GrB, within 30 min): four fold
- resting concentration of [Ca2+]c (Primary neurons; lowest concentration tested, 1 nM GrB, within 30 min): doubled

Molecule: pertussis toxin
- effect on GB-induced caspase-3 activation [6]: attenuated GB-induced caspase-3 activation
- blocking of GrB-induced neurotoxicity (human fetal neurons; 10 μM pertussis toxin, added 1 h prior to GrB, trypan blue uptake, 48 h): blocked

Molecule: margatoxin (MgTX), Kv1.3 specific blocker (from UniProt P40755 1-39) (peptide)
- protection of human fetal neurons against GB (4 nM) toxicity, trypan blue staining (% dead cells) [7]: 1 to 10 nM

Molecule: margatoxin (TIINVKCTSPKQCLPPCKAQFGQSAGAKCMNGKCKCYPH) [Margotoxin]
- effect on GB-induced caspase-3 activation [6]: attenuated GB-induced caspase-3 activation
- neuronal differentiation (βIII-tubulin positive cells and processes) [8]: increased the number of βIII-tubulin positive cells and processes per cell
- concentration with significant protection against GB toxicity (human fetal neurons; GB 4 nM, trypan blue): 1 to 10 nM
- protection against GB toxicity (% trypan blue stained cells) (human fetal neurons; GB 4 nM, trypan blue): protected against GB toxicity in a dose responsive manner

Molecule: Cc1c(C)c2c(c(C)c1O)CCC(C)(C(=O)O)O2 (stereo not drawn) [trolox]
- blocking of GrB-induced neurotoxicity (human fetal neurons; [9]): blocked GrB neurotoxicity

B1: perforin: human perforin, membrane disrupting protein of lymphocyte granules (protein, UniProt P14222 22-555, looked up)
Perforin-1: PCHTAARSECKRSHKFVPGAWLAGEGVDVTSLRRSGSFPVDTQRFLRPDGTCTLCENALQEGTLQRLPLALTNWRAQGSGCQRHVTRAKVSSTEAVARDAARSIRNDWKVGLDVTPKPTSNVHVSVAGSHSQAANFAAQKTHQDQYSFSTDTVECRFYSFHVVHTPPLHPDFKRALGDLPHHFNASTQPAYLRLISNYGTHFIRAVELGGRISALTALRTCELALEGLTDNEVEDCLTVEAQVNIGIHGSISAEAKACEEKKKKHKMTASFHQTYRERHSEVVGGHHTSINDLLFGIQAGPEQYSAWVNSLPGSPGLVDYTLEPLHVLLDSQDPRREALRRALSQYLTDRARWRDCSRPCPPGRQKSPRDPCQCVCHGSAVTTQDCCPRQRGLAQLEVTFIQAWGLWGDWFTATDAYVKLFFGGQELRTSTVWDNNNPIWSVRLDFGDVLLATGGPLRLQVWDQDSGRDDDLLGTCDQAPKSGSHEVRCNLNHGHLKFRYHARCLPHLGGGTCLDYVPQMLLGEPPGNRSGAVW
- enhancement of GrB neurotoxicity (human fetal neurons; perforin 50 ng/ml combined with GrB 1 nM): enhancement was not statistically significant

Reference: patent publication US20100239562A1, “Kv CHANNELS IN NEURODEGENERATION AND NEUROPROTECTION” (priority 2006, published 2010)
